Assay results: US11311533B2, “Opioid receptor antagonist conjugate and use thereof” (SHANGHAI HANMAI BIO-PHARMA CO., LTD., priority 2016, dated 2022)
Values joined by “and” are separate entries in the source; they are usually repeats but may differ in a detail not shown here. Equal values may be shown once. Where a name gives a salt, the structure may show the parent alone. Read-outs that look alike come from different tables or passages of the source.

Experiments:
[1] = molecular target: T1, OPRM1 (Mμ opioid receptor gene) receptor (Homo sapiens, UniProt P35372); test: cell-based; details: for inhibition at 10 µM: OPRM1, read-out: Inhibition rate (%) of highest concentration (mean ± standard deviation) (N = 2)
T1 sequence (P35372 whole entry): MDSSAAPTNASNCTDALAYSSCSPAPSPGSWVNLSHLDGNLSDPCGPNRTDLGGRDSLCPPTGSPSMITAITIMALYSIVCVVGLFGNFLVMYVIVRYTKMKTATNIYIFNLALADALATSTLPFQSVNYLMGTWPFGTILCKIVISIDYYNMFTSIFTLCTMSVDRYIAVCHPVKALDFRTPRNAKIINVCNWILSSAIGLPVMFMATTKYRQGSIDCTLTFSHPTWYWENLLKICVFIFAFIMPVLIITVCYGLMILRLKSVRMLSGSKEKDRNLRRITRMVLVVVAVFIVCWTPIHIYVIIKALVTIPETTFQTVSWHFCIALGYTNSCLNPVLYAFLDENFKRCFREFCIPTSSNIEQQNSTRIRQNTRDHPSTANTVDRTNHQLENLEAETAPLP
Method: (§1) Cell suspension was inoculated into a 384-well microplate at a density of 15,000 cells per well, and cultured in a 37° C./5% CO2 incubator for at least 18 hours before experiment.
(§2) Before the test, the conjugates to be tested was diluted with HBSS buffer (containing 20 mM HEPES) and prepared as 5× solution with a concentration five times of the test solution. […] The concentration of the corresponding control DMSO is 0.1%.
(§3) The protocol for preparing agonist detection: cells were inoculated into 384-well microplates, 20 μl of cell suspension per well (containing 15,000 cells); the plate was placed in 37° C./5% CO2 incubator to continue the culture; cells were taken out after 18 hours, and dye was added, 20 μl per well; the plate was incubated in 37° C./5% CO2 incubator for 1 hour and equilibrated at room temperature for 15 minutes; and 10 μl of 5× test solution of agonist was added to each well for RFU value detection.
(§4) The protocol for preparing inhibitor detection: cells were inoculated into 384-well microplates, 20 μl of cell suspension per well (containing 15,000 cells); the plate was placed in 37° C./5% CO2 incubator to continue the culture; cells were taken out after 18 hours; for the inhibitor detection, 20 μl of dye was added to the plate, and then 10 μl of prepared conjugate solution was added; the plate was incubated in 37° C./5% CO2 for 1 hour and equilibrate at room temperature for 15 minutes; 12.5 μl of 5× EC80 positive agonist was added for RFU value detection.
(§5) The 384-well microplate containing the conjugate solution (5× test concentration), cell plate and pipette tip box were placed in FLIPR (Molecule Devices), and the agonist detection program was run. The overall detection time of the instrument was 120 seconds. 10 μl of agonist was automatically added to the plate at the 21st second. […] (Molecule Devices), and the inhibitor detection program was run. The overall detection time of the instrument was 120 seconds. 12.5 μl of positive agonist was automatically added to the plate at the 21st second.

mice [2] = test: Mouse hot plate analgesia experiment (antagonism of morphine analgesia, blood-brain barrier study); details: for Average Pain Threshold after Administration (s) Mean ± SD: 60 minutes after administration; for Passage through the blood-brain barrier (concluded from antagonism of the analgesic effect of morphine): mouse hot plate, conjugate subcutaneous after morphine by gavage; for Difference between the pain threshold before and after administration (significance): before vs 60 minutes after administration, Na1037 and Na1041: high-dose groups
Method: Six conjugates Na1021, Na1029, Na1045, Na1037, Na1041, and Na1049 were subjected to mouse hot plate analgesia experiments for four times, respectively. In each experiment, mice (JOINN Laboratories (Suzhou)) were randomly divided into four groups (eight per group): one blank control group, one morphine control group, and two other groups which were administered with morphine by gavage first, and then low dose and high dose of the conjugates were subcutaneously injected respectively. The mice were put on a hot plate (55±0.1) ° C. before administration, and the time was recorded immediately. The duration from the beginning on the hot plate to the first hind paw licking was recorded as the reaction time of heat-pain sensation (i.e., pain threshold, the unit is second (s)). The pain threshold was set as 100% analgesia if there was no hind paw licking in 60 seconds. It was recorded as 60 seconds when the time exceeded 60 seconds to prevent burn of foot. The mice were again put on a (55±0.1) ° C. hot plate 60 minutes after the administration of drug and the reaction time of heat-pain sensation was recorded. […] The value of the pain thresholds before and after administration was compared and the percentage of increase in pain threshold was calculated according to the following formula to determine the effect of drug on antagonizing morphine analgesia. Percentage of increase in pain threshold=[(average heat pain threshold after administration−average pain threshold before administration)/average pain threshold before administration]×100%

mice [3] = test: Anti-constipation study: antagonizing the antidiarrheal effect of loperamide hydrochloride (castor oil diarrhea); format: in vivo
Method: The anti-constipation study experiment was completed by using the test of antagonizing the antidiarrheal effect of loperamide hydrochloride. The specific experiment process was: the mice were divided into groups randomly, eight mice each group, wherein one group was administered with 0.5 mL of castor oil by gavage, one group was administered with 2 mg/kg loperamide hydrochloride and 0.5 mL of castor oil by gavage, and conjugate test groups were respectively administered with Na1021 (300 nmol/kg), Na1029 (300 nmol/kg), Na1033 (300 nmol/kg) and Na1045 (600 nmol/kg) by gavage first, and then with 2 mg/kg loperamide and 0.5 mL castor oil by gavage.
The mice were divided into groups randomly, eight mice each group, wherein one group was administered with 0.5 mL of castor oil by gavage, one group was administered with 2 mg/kg loperamide and 0.5 mL castor oil by gavage, other groups were respectively administered with different doses of conjugate Na1029 first, then with 2 mg/kg loperamide hydrochloride and 0.5 mL castor oil by gavage.

[4] = molecular target: T1, OPRM1 (Mμ opioid receptor gene) receptor
Method: as §1, §2, §3, §4, §5

[5] = 4 μmol/kg subcutaneous + Morphine by gavage
[6] = 20 μmol/kg subcutaneous + Morphine by gavage
[7] = Table 10: 300 nmol/kg by gavage + Loperamide Hydrochloride + Castor Oil
[8] = Table 11: 500 μg/kg + Loperamide Hydrochloride + Castor Oil

Oc1ccc2c3c1O[C@H]1[C@@H](OCCOCCOCCOCCO[C@H]4CC[C@@]5(O)[C@H]6Cc7ccc(O)c8c7[C@@]5(CCN6CC5CC5)[C@H]4O8)CC[C@@]4(O)[C@@H](C2)N(CC2CC2)CC[C@]314 [Nal021, PEG4-(6-α-naltrexol)2-ether]
IC50 [1]: 0.229 µM
inhibition at 10 µM [1]: 100.3 ± 0.56%
Average Pain Threshold before Administration (s) Mean ± SD (mice [2]; 4.36 μmol/kg + Morphine group): 20.63 ± 7.07 s
Percentage of Increase in Pain Threshold (mice [2]; 4.36 μmol/kg + morphine): 172.66%
Average Pain Threshold after Administration (s) Mean ± SD (mice [2]; 4.36 μmol/kg subcutaneous + Morphine by gavage): 56.25 ± 10.61 s
Average Pain Threshold before Administration (s) Mean ± SD (mice [2]; 21.8 μmol/kg + Morphine group): 18.63 ± 4.60 s
Percentage of Increase in Pain Threshold (mice [2]; 21.8 μmol/kg + morphine): 220.72%
Average Pain Threshold after Administration (s) Mean ± SD (mice [2]; 21.8 μmol/kg subcutaneous + Morphine by gavage): 59.75 ± 0.71 s
Passage through the blood-brain barrier (concluded from antagonism of the analgesic effect of morphine) (mice [2]): cannot pass through the blood-brain barrier

COCCOCCOCCOCCOCCOCCO[C@H]1CC[C@@]2(O)[C@H]3Cc4ccc(O)c5c4[C@@]2(CCN3CC2CC2)[C@H]1O5 [Nal037, mPEG6-(6-α-naltrexol)-ether]
IC50 [1]: 0.225 µM
inhibition at 10 µM [1]: 100.6 ± 0.34%
Average Pain Threshold before Administration (s) Mean ± SD (mice [2]; 4 μmol/kg + Morphine group): 19.38 ± 5.21 s
Percentage of Increase in Pain Threshold (mice [2]; 4 μmol/kg + morphine): 62.54%
Average Pain Threshold after Administration (s) Mean ± SD (mice [2]; [5]): 31.50 ± 11.83 s
Average Pain Threshold before Administration (s) Mean ± SD (mice [2]; 20 μmol/kg + Morphine group): 20.5 ± 3.93 s
Percentage of Increase in Pain Threshold (mice [2]; 20 μmol/kg + morphine): 1.85%
Average Pain Threshold after Administration (s) Mean ± SD (mice [2]; [6]): 20.88 ± 5.87 s
Difference between the pain threshold before and after administration (significance) (mice [2]): not significant
Passage through the blood-brain barrier (concluded from antagonism of the analgesic effect of morphine) (mice [2]): can pass through the blood-brain barrier

C=CCN1CC[C@]23c4c5ccc(O)c4O[C@H]2[C@@H](OCCOCCOCCOCCOCCOCCOCCOCCOC)CC[C@@]3(O)[C@H]1C5 [Nal049, mPEG8-(6-α-naloxol)-ether]
IC50 [1]: 1.05 µM
inhibition at 10 µM [1]: 94.3 ± 5.39%
Average Pain Threshold before Administration (s) Mean ± SD (mice [2]; 4 μmol/kg + Morphine group): 14.00 ± 7.09 s
Percentage of Increase in Pain Threshold (mice [2]; 4 μmol/kg + morphine): 125.93%
Average Pain Threshold after Administration (s) Mean ± SD (mice [2]; [5]): 31.63 ± 10.04 s
Average Pain Threshold before Administration (s) Mean ± SD (mice [2]; 20 μmol/kg + Morphine group): 13.5 ± 5.07 s
Percentage of Increase in Pain Threshold (mice [2]; 20 μmol/kg + morphine): 91.70%
Average Pain Threshold after Administration (s) Mean ± SD (mice [2]; [6]): 25.88 ± 7.64 s
Passage through the blood-brain barrier (concluded from antagonism of the analgesic effect of morphine) (mice [2]): cannot pass through the blood-brain barrier

Oc1ccc2c3c1O[C@H]1[C@H](OCCOCCOCCOCCOCCOCCO[C@@H]4CC[C@@]5(O)[C@H]6Cc7ccc(O)c8c7[C@@]5(CCN6CC5CC5)[C@H]4O8)CC[C@@]4(O)[C@@H](C2)N(CC2CC2)CC[C@]314 [Nal026, PEG6-(6-β-naltrexol)2-ether]
IC50 [1]: 0.183 µM
inhibition at 10 µM [1]: 100.5 ± 0.26%

Oc1ccc2c3c1O[C@H]1[C@@H](OCCOCCOCCOCCOCCOCCOCCOCCO[C@H]4CC[C@@]5(O)[C@H]6Cc7ccc(O)c8c7[C@@]5(CCN6CC5CC5)[C@H]4O8)CC[C@@]4(O)[C@@H](C2)N(CC2CC2)CC[C@]314 [Nal029, PEG8-(6-α-naltrexol)2-ether]
IC50 [1]: 0.161 µM
inhibition at 10 µM [1]: 98 ± 3.09%
Average Pain Threshold before Administration (s) Mean ± SD (mice [2]; 3.66 μmol/kg + Morphine group): 20.00 ± 5.71 s
Percentage of Increase in Pain Threshold (mice [2]; 3.66 μmol/kg + morphine): 200.00%
Average Pain Threshold after Administration (s) Mean ± SD (mice [2]; 3.66 μmol/kg subcutaneous + Morphine by gavage): 60.00 ± 0 s
Average Pain Threshold before Administration (s) Mean ± SD (mice [2]; 18.28 μmol/kg + Morphine group): 22.13 ± 7.26 s
Percentage of Increase in Pain Threshold (mice [2]; 18.28 μmol/kg + morphine): 155.31%
Average Pain Threshold after Administration (s) Mean ± SD (mice [2]; 18.28 μmol/kg subcutaneous + Morphine by gavage): 56.5 ± 9.90 s
Passage through the blood-brain barrier (concluded from antagonism of the analgesic effect of morphine) (mice [2]): cannot pass through the blood-brain barrier
Antagonism of the antidiarrheal effect of loperamide hydrochloride compared with the model control group (mice [3]; Example 9, dose-dependent): significantly antagonize
Total Number of Diarrhea Times Six Hours after Administration (mice [3]; [7]): 20.88 ± 5.82
Total Number of Diarrhea Times Six Hours after Administration (mice [3]; Table 10: 300 nmol/kg by gavage + Loperamide Hydrochloride + Castor Oil, listed as Na1029): relatively high
Total Number of Diarrhea Times Six Hours after Administration (mice [3]; Table 11: 10 μg/kg + Loperamide Hydrochloride + Castor Oil): 5.25 ± 7.42
Total Number of Diarrhea Times Six Hours after Administration (mice [3]; Table 11: 30 μg/kg + Loperamide Hydrochloride + Castor Oil): 6.50 ± 5.88
Total Number of Diarrhea Times Six Hours after Administration (mice [3]; Table 11: 100 μg/kg + Loperamide Hydrochloride + Castor Oil): 12.13 ± 5.67
Total Number of Diarrhea Times Six Hours after Administration (mice [3]; [8]): 18.25 ± 3.99
EC50 for antagonizing the antidiarrheal effect of loperamide hydrochloride (mice [3]; dose-response in mice, Table 11 and FIG. 1): ~0.086 mg/kg

COCCOCCOCCOCCOCCOCCOCCOCCO[C@H]1CC[C@@]2(O)[C@H]3Cc4ccc(O)c5c4[C@@]2(CCN3CC2CC2)[C@H]1O5 [Nal041, mPEG8-(6-α-naltrexol)-ether]
IC50 [1]: 0.21 µM
inhibition at 10 µM [1]: 95.8 ± 1.86%
Average Pain Threshold before Administration (s) Mean ± SD (mice [2]; 4 μmol/kg + Morphine group): 14.25 ± 1.75 s
Percentage of Increase in Pain Threshold (mice [2]; 4 μmol/kg + morphine): 170.18%
Average Pain Threshold after Administration (s) Mean ± SD (mice [2]; [5]): 38.5 ± 14.74 s
Average Pain Threshold before Administration (s) Mean ± SD (mice [2]; 20 μmol/kg + Morphine group): 16.88 ± 6.79 s
Percentage of Increase in Pain Threshold (mice [2]; 20 μmol/kg + morphine): 30.33%
Average Pain Threshold after Administration (s) Mean ± SD (mice [2]; [6]): 22.00 ± 5.12 s
Difference between the pain threshold before and after administration (significance) (mice [2]): not significant
Passage through the blood-brain barrier (concluded from antagonism of the analgesic effect of morphine) (mice [2]): can pass through the blood-brain barrier

CN(C)C(=O)C(CCN1CCC(O)(c2ccc(Cl)cc2)CC1)(c1ccccc1)c1ccccc1 [Loperamide Hydrochloride, loperamide hydrochloride, reference compound]
Total Number of Diarrhea Times Six Hours after Administration (mice [3]; Table 10: 2 mg/kg loperamide hydrochloride + 0.5 mL castor oil by gavage, no conjugate): 10.88 ± 7.14
Total Number of Diarrhea Times Six Hours after Administration (mice [3]; Table 11: 2 mg/kg loperamide + 0.5 mL castor oil by gavage, no conjugate): 5.75 ± 3.69

Oc1ccc2c3c1O[C@H]1[C@@H](OCCOCCOCCOCCOCCOCCOCCOCCOCCOCCO[C@H]4CC[C@@]5(O)[C@H]6Cc7ccc(O)c8c7[C@@]5(CCN6CC5CC5)[C@H]4O8)CC[C@@]4(O)[C@@H](C2)N(CC2CC2)CC[C@]314 [Nal033, PEG10-(6-α-naltrexol)2-ether]
IC50 [1]: 0.197 µM
inhibition at 10 µM [1]: 99.1 ± 1%
Total Number of Diarrhea Times Six Hours after Administration (mice [3]; [7]): 15.25 ± 4.13

O=C1CC[C@@]2(O)[C@H]3Cc4ccc(O)c5c4[C@@]2(CCN3CC2CC2)[C@H]1O5 [Naltrexone, naltrexone, reference compound]
Total Number of Diarrhea Times Six Hours after Administration (mice [3]; [8]): 14.00 ± 5.76

Oc1ccc2c3c1O[C@H]1[C@@H](OCCOCCOCCO[C@H]4CC[C@@]5(O)[C@H]6Cc7ccc(O)c8c7[C@@]5(CCN6CC5CC5)[C@H]4O8)CC[C@@]4(O)[C@@H](C2)N(CC2CC2)CC[C@]314 [Nal053, PEG3-(6-α-naltrexol)2-ether]
IC50 [1]: 0.25 µM
inhibition at 10 µM [1]: 101.8 ± 0.97%

CN1CC[C@]23c4c5ccc(O)c4O[C@H]2[C@@H](O)C=C[C@H]3[C@H]1C5 [Morphine, morphine, reference compound]
Average Pain Threshold after Administration (s) Mean ± SD (mice [2]; morphine control group, cut-off 60 s): 53.25 ± 10.96 s and 52.00 ± 9.67 s and 38.5 ± 15.58 s and 39.00 ± 17.25 s
Average Pain Threshold before Administration (s) Mean ± SD (mice [2]; morphine control group, hot plate 55 °C): 19.25 ± 5.57 s and 20.38 ± 3.93 s and 20.88 ± 4.91 s and 15.12 ± 6.38 s

Oc1ccc2c3c1O[C@H]1[C@@H](OCCOCCOCCOCCOCCOCCO[C@H]4CC[C@@]5(O)[C@H]6Cc7ccc(O)c8c7[C@@]5(CCN6CC5CC5)[C@H]4O8)CC[C@@]4(O)[C@@H](C2)N(CC2CC2)CC[C@]314 [Nal025, PEG6-(6-α-naltrexol)2-ether]
IC50 [1]: 0.185 µM
inhibition at 10 µM [1]: 100.6 ± 0.48%

C=CCN1CCC23c4c5ccc(O)c4OC2C(OCCOCCOCCOCCOCCOCCOC)CCC3(O)C1C5 (stereo not drawn) [Nal046, mPEG6-(6-β-naloxol)-ether]
IC50 ([4]; CHO-K1/Gα15/OPRM1 cells, inhibitor detection against EC80 positive agonist, RFU): 3.84 µM
Inhibition rate (%) of highest concentration (mean ± standard deviation) (N = 2) ([4]; highest concentration 10000 nM): 79.55 ± 5.73%
